This series is described as follows: gradient 5% acetonitrile 3 min, to 50% in 2 min, to 85% in 15 min, held 3 min, 100 µL/min. The following applies: column: Zorbax Extend-C18 2.1 x 50 mm; eluents: water / acetonitrile, 0.1% formic acid. The method, boiled down: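 Each retention time is based on an adduct peak selected computationally and verified by manual inspection. Measurements used HPLC–quadrupole time-of-flight mass spectrometry in positive and negative ionization mode on mixtures of ~100 pure standards. Chromatography ran on a Zorbax Extend-C18 column (2.1 × 50 mm, 1.8 μm) at 100 μL/min with water and acetonitrile, each containing 0.1% formic acid, and dead and dwell volumes of 40 μL and 900 μL.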
As for `CCOc1ccc(CNC(=O)C2CCN(S(=O)(=O)c3ccc4c(c3)NC(=O)CO4)CC2)cc1`, the RP-LC retention time turned out to be 880 s.
Compound `Cc1cc(NC(=O)N2CCCC(C)(C(=O)NCc3ccccc3C)C2)ccc1Br` (stereo not given) displayed an RP-LC retention time of 1100 s.
On to `CC(C)NC(=O)c1ccc(OCC2CCCN(C(=O)c3c(F)cccc3F)C2)cc1` (stereo not given), for which the RP-LC retention time was found to be 841 s.
Under `COCC1CN(Cc2cccc3[nH]ccc23)CC12CCNCC2` (stereo not given) stands 510 s; under `O=C(C1CCCN(c2ncc(-c3cccc(F)c3)cn2)C1)N1CCC(N2CCCCC2)CC1` (stereo not given), 689 s; under `O=C(CN1CCN(Cc2ccccc2)C1=O)NCc1ccc(F)cc1Cl`, 833 s.
Compound `COCCCN(CC(=O)N1CCNCC1)C(=O)c1ccc(Br)cc1` registered an RP-LC retention time of 603 s.
In turn, `Cc1ccc(NC(=O)NCC(c2cccnc2)c2cn(C)c3ccccc23)c(C)c1` (stereo not given) came in with an RP-LC retention time of 720 s.
With `O=C(c1ccsc1)N1CCCn2cc(-c3ccccc3)nc21` the figure was 640 s; with `Cc1cc2n(n1)CCC(=O)N2CCCC(=O)NCc1ccco1`, 619 s; with `CC(C)S(=O)(=O)c1cc2c(cc1NC(=O)c1ccccc1Br)n(C)c(=O)n2C`, 822 s.
As for `O=C(NCc1cc(-c2ccccc2F)on1)c1ccccc1Br`, the RP-LC retention time was determined as 810 s.
The compound `O=C(Cn1cccn1)N1CCN(c2cccc(Cl)c2Cl)CC1` yielded an RP-LC retention time of 782 s.
Turning to `Cc1ccc(-c2noc(-c3ccc(=O)n(Cc4cc(C)ccc4C)c3)n2)cc1`, the RP-LC retention time was 1260 s.
With `Cc1nnc(-c2cc(S(=O)(=O)NC3CCCCCCC3)c(C)n2C)o1` the figure was 897 s.
As for `O=C(Cn1cccc1-c1nnc(C2CCC2)o1)Nc1ccc(F)c(Cl)c1`, the RP-LC retention time was found to be 965 s.
Regarding `Cc1ccc(Sc2ccc(N3CCCC(C(=O)NCc4ccccc4)C3)nn2)cc1` (stereo not given), the RP-LC retention time worked out at 905 s.
With `CCOc1ccc(N2C=C(C(=O)OC)S(=O)(=O)c3ccccc32)cc1` the figure was 887 s; with `CCCc1cc(N2CCN(C(=O)c3ccc(OC)nc3)CC2)nc2nnc(CC)n12`, 623 s.
In turn, `CCN1CCN(C(=O)Cc2c(C)nn(-c3nc(-c4ccc(C)cc4)cs3)c2C)CC1` registered an RP-LC retention time of 730 s.
Consider `Cc1cc(C)n(CCNc2nc3c(F)cc(F)cc3s2)n1`, for which the RP-LC retention time was determined as 732 s.
`COc1cc(OC)c(NC(=O)N(C)CCc2noc(-c3ccccc3)n2)cc1Cl` displayed an RP-LC retention time of 946 s.
In turn, `Cc1sc2ccn(Cc3ccc(F)cc3)c(=O)c2c1C(=O)NC(C)C` registered an RP-LC retention time of 814 s.
Under `Cc1ccc(C(=O)N2CCCCC2c2nncn2CC2CC2)s1` (stereo not given) stands 740 s; under `COc1ccccc1Nc1c(-c2ccc(C)cc2)nc2cnccn12`, 954 s.
Regarding `COc1ccccc1NC(=O)NC(C(=O)N1CCc2ccccc21)C(C)C` (stereo not given), the RP-LC retention time came out at 723 s.
With `O=C(CC1CCCN(c2cn[nH]c(=O)c2)C1)N1CCSCC1` (stereo not given), the RP-LC retention time amounted to 617 s.
The compound `CC1=C(c2ccc(C)c(C)c2)S(=O)(=O)N=C1N1CCCN(C(=O)c2ccsc2)CC1` gave an RP-LC retention time of 858 s.
`Cc1ccc(NC(=O)c2cccn2Cc2noc(C)n2)c(Cl)c1` registered an RP-LC retention time of 945 s.
`CCOC(=O)c1c(C)[nH]c(C(=O)N2CCC(CC(=O)NCC3CCCO3)CC2)c1C` (stereo not given) registered an RP-LC retention time of 657 s.
The compound `COc1ccc(NC(=O)COc2ccc(-c3nnc4n3CCCC4)cc2)cc1OC` displayed an RP-LC retention time of 626 s.
Regarding `CNC(=O)NC1CCN(C(=O)c2ccc(F)cc2)C1` (stereo not given), the RP-LC retention time came to 600 s.
`O=C(Nc1ccccc1)[C@@H]1OCC(=O)N(C2CC2)[C@H]1c1ccccc1` gave an RP-LC retention time of 775 s.
The compound `CCn1ccc(-c2nc(CCS(=O)(=O)c3ccccc3)no2)n1` displayed an RP-LC retention time of 768 s.
Regarding `CC(C)NC(=O)c1ccc2c(c1)nc(CN(C)C(=O)Nc1ccc3c(c1)OCCO3)n2C`, the RP-LC retention time came to 616 s.
With `Cc1cc2nc(C(=O)Nc3cc(F)ccc3C)cc(C)n2n1` the figure was 1050 s; with `COc1ccc(Nc2nc(N3CCN(c4ncccn4)CC3)nc3c2C(=O)CCC3)cc1`, 1010 s; with `O=C(C1CCN(c2cnc3nccnc3c2)CC1)N1CCN(c2ccccc2)CC1`, 718 s.
Under `C[C@@H](NC(=O)c1cccc(Cl)c1)C(=O)NCc1cscn1` stands 652 s.
Take `Cc1cc2c(c(=O)n(-c3ccc(F)cc3)c(=O)n2CC(=O)Nc2ccc(C(F)(F)F)cc2)n1C`: the RP-LC retention time stood at 942 s.
On to `Cc1nncn1C1CCN(S(=O)(=O)c2ccc(C(C)C)cc2)CC1`, for which the RP-LC retention time amounted to 674 s.
As for `O=C(Nc1ccccc1F)c1cccn1Cc1noc(-c2ccccc2)n1`, the RP-LC retention time was 1010 s.
`O=C(CCC(=O)N1CCCC1c1nc2ccccc2s1)N1CCc2ccccc21` (stereo not given) gave an RP-LC retention time of 876 s.
Compound `CCOC(=O)Cc1c(C)nc2c(-c3ccccc3)c(C)nn2c1C` yielded an RP-LC retention time of 1080 s.
Under `O=C(Nc1ccc2c(c1)CCC2)Nc1cccn2ncnc12` stands 891 s; under `CCC(=O)Nc1ccc2c(c1)CN(C(=O)c1ccccc1F)C(C(=O)N1CCCC1)C2` (stereo not given), 672 s.
`COCCc1noc([C@@H]2CC(F)(F)CN2C(=O)c2coc(C)n2)n1` came in with an RP-LC retention time of 705 s.
`O=C(c1cc2ccccc2o1)N1CCC(CNS(=O)(=O)Cc2ccccc2Cl)CC1` displayed an RP-LC retention time of 880 s.
Under `COc1cc(Nc2ncc3c(n2)-c2ccc(Cl)cc2C(c2c(F)cccc2OC)=NC3)ccc1C(=O)O` stands 919 s; under `CCn1c(SCC(=O)Nc2nc(-c3ccc(C)cc3)cs2)nnc1-c1cc2ccccc2o1`, 1140 s.
Turning to `COc1ccc(N2CCN(c3ccc4cc(S(=O)(=O)N5CCC(C)CC5)ccc4n3)CC2)cc1`, the RP-LC retention time was determined as 1060 s.
`Cc1cccc(C#Cc2ccccc2)n1` had an RP-LC retention time of 833 s.
Under `O=S(=O)(NCC1Cn2cccc2CN1Cc1ccccc1)c1ccccc1` (stereo not given) stands 763 s; under `CCN1C(=O)C(C)(C(=O)Nc2ccccc2)Oc2cccnc21` (stereo not given), 859 s.
On to `C[C@@H](NC(=O)c1ccccc1F)C(=O)NCc1cscn1`, for which the RP-LC retention time amounted to 620 s.
With `O=C(NC1CCN(c2cc(-c3cccs3)[nH]n2)C1)c1ccccn1` (stereo not given) the figure was 667 s; with `COc1ccc(NS(=O)(=O)c2ccc(-c3nnc(C4CCC4)o3)o2)cc1F`, 868 s.
As to `O=C(C1=NNc2ccccc2S1(=O)=O)N1CCCCC1`, the RP-LC retention time is 773 s.
In turn, `Cn1cccc(C(=O)N2CCC3(CC2)OCCN3S(=O)(=O)c2ccccc2)c1=O` came in with an RP-LC retention time of 616 s.
As for `CCN(CC)S(=O)(=O)c1ccc2c(c1)CC(C(=O)N1CCN(c3ccccc3)CC1)N2C(C)=O` (stereo not given), the RP-LC retention time worked out at 879 s.
`CCc1cc(N2CCN(C(=O)COc3ccc(OC)cc3)CC2)nc2nncn12` showed an RP-LC retention time of 602 s.
Compound `COc1cccc(CC(=O)NCC(=O)Nc2nc3ccccc3[nH]2)c1` yielded an RP-LC retention time of 618 s.
In the case of `O=C(CN1CCN(Cc2ccc(F)cc2Cl)C1=O)N1CCN(C2CCCCC2)CC1`, the RP-LC retention time was found to be 644 s.
`c1cc2nncn2nc1NC1CCCCC1` returned an RP-LC retention time of 790 s.
As to `c1ccc(-c2cnn3cc(-c4ccc(OCCN5CCOCC5)cc4)cnc23)cc1`, the RP-LC retention time was determined as 818 s.
Regarding `CCN1c2ccc(C)cc2C(=O)NC12CCN(C(=O)Cc1ccc(C)cc1)CC2`, the RP-LC retention time came to 887 s.
Turning to `CCc1ccc(-c2noc(CN3C(=O)COc4cc(Cl)ccc43)n2)cc1`, the RP-LC retention time is 1240 s.
`O=c1n(Cc2ccccc2Cl)nc2c(S(=O)(=O)N3CCc4ccccc4C3)cccn12` came in with an RP-LC retention time of 1030 s.
In the case of `COc1cc(C)c(Cc2cnc(N)nc2N)cc1OC`, the RP-LC retention time was found to be 623 s.
Consider `Cc1nn(CC(=O)NCCCOC(C)C)c(=O)c2c(-n3cccc3)n(-c3ccc(Cl)cc3)nc12`, for which the RP-LC retention time worked out at 997 s.
With `Cc1cc(C(=O)NCCN2CCOCC2)nc2cc(-c3ccccn3)nn12` the figure was 693 s; with `CCCCCn1c(=O)c2c(nc3n2CCN3c2ccc(OC)cc2)n(C)c1=O`, 1010 s.
In turn, `O=C(NCCn1ncc2c(=O)n(Cc3ccccc3F)cnc21)c1ccc2c(c1)OCO2` registered an RP-LC retention time of 678 s.
For `CCCCC(=O)Nc1ccc2nc(N3CCN(c4cccc(C)c4)CC3)cc(C(=O)O)c2c1`, the RP-LC retention time is 722 s.
With `COC(=O)[C@H](Cc1ccc(C#Cc2ccccc2)cc1)NC(=O)C[C@H]1CCCN(C(=N)N)C1` the figure was 772 s.
`COc1ccc(-c2cc3n(n2)CCCN(S(=O)(=O)c2cccc4cccnc24)C3)cc1` returned an RP-LC retention time of 907 s.
The compound `COc1ccc2c(c1)C=C(C(=O)NCc1ccccc1OC)C=CO2` displayed an RP-LC retention time of 944 s.
For `COc1cccc(-c2noc(-c3nn(-c4ccc(Cl)cc4)ccc3=O)n2)c1OC`, the RP-LC retention time turned out to be 896 s.
The compound `CCOC(=O)c1c(C)c(CCC(=O)NC(C)c2ccc3c(c2)OCCO3)n(C)c1C` (stereo not given) came in with an RP-LC retention time of 845 s.
Under `COc1ccc(-c2cc3n(n2)CCCN(C(=O)Nc2ccccc2F)C3)cc1OC` stands 885 s.

The values above are taken from the METLIN SMRT retention time set (Domingo-Almenara et al. 2019).
